# Experimental data published in US20080039432A1, “Active Compound Combinations Having Insecticidal Properties” (priority 2004, published 2008).
# Read-outs that look alike come from different tables or passages of the source.
# What was measured:
# Format in all cases: in vivo
# Myzus persicae = system: Myzus persicae
# Method: (§1) To produce a suitable preparation of active compound, 1 part by weight of active compound is mixed with the stated amounts of solvent and emulsifier, and the concentrate is diluted with emulsifier-containing water to the desired concentration.
# Cabbage leaves (Brassica oleracea) which are heavily infested by the green peach aphid (Myzus persicae) are treated by being dipped into the preparation of active compound of the desired concentration.
# After the desired period of time, the kill in % is determiined. 100% means that all aphids have been killed; 0% means that none of the aphids have been killed. The determined kill rates are entered into Colby's formula.
# [1] = system: Phaedon cochleariae larvae; assay: Phaedon cochleariae larvae test (cabbage leaf dip)
# Method: Phaedon Cochleariae Larvae Test
# as §1
# Cabbage leaves (Brassica oleracea) are treated by being dipped into the active compound preparation of the desired concentration and are populated with larvae of the mustard beetle (Phaedon cochleariae) while the leaves are still moist.
# After the desired period of time, the kill in % is determined. 100% means that all larvae have been killed; 0% means that none of the larvae have been killed. The determined kill rates are entered into Colby's formula.
# [2] = system: Plutella xylostella, resistant strain; conditions: Table A, 20 ppm, caterpillars on dipped cabbage leaves
# Method: Plutella Xylostella Test, Resistant Strain
# as §1
# Cabbage leaves (Brassica oleracea) are treated by being dipped into the active compound preparation of the desired concentration and are populated with caterpillars of the diamondback moth (Plutella xylostella, resistant strain) while the leaves are still moist.
# After the desired period of time, the kill in % is determined. 100% means that all caterpillars have been killed; 0% means that none of the caterpillars have been killed. The determined kill rates are entered into Colby's formula.
compound,measurement,setting,value
CNC(=O)O/N=C/C(C)(C)SC [aldicarb],Kill in % after 1 d,"Myzus persicae; Table B1, 4 ppm",45%
same,Kill in % after 1 d,"[1]; Table C1, 20 ppm",25%
same,Kill in % after 1 d,"[1]; Table C2, 20 ppm",25%
CN/C(=N/[N+](=O)[O-])NCc1cnc(Cl)s1 [clothianidin],Kill in % after 6 days,[2],0%
same,Kill in % after 1 d,"Myzus persicae; Table B1, 0.80 ppm",50%
same,Kill in % after 1 d,"[1]; Table C2, 4 ppm",65%
O=[N+]([O-])N=C1NCCN1Cc1ccc(Cl)nc1 [imidacloprid],Kill in % after 1 d,"Myzus persicae; Table B1, 0.16 ppm",20%
same,Kill in % after 1 d,"Myzus persicae; Table B2, 0.16 ppm",10%
same,Kill in % after 1 d,"[1]; Table C1, 4 ppm",5%
same,Kill in % after 1 d,"[1]; Table C2, 4 ppm",20%
ethoprophos,Kill in % after 6 days,[2],5%
same,Kill in % after 1 d,"Myzus persicae; Table B2, 20 ppm",0%
